{
  "source": "patent US12409121B2",
  "about": "“Formulations and methods for preparing stable cosmetic compositions” (Spinart, LLC, priority 2019, dated 2025)",
  "origin": "cited, not measured here",
  "data": [
    {"smiles": "N=C(N)NCCCC(N)C(=O)O", "note": "(centres unmarked) [Arginine]", "values": [
      {"measurement": "α-CO2H pKa1", "setting": "carboxylic group", "value": 2.18},
      {"measurement": "α-NH3 pKa2", "setting": "α-amino group", "value": 9.09}
    ]}
  ]
}
